Key:
[1] = test system: adult subjects with late-onset Pompe disease (LOPD); experiment: ATB200-03 (PROPEL) phase 3 trial: sitting forced vital capacity; assay type: in vivo, human
From the text: (§1) The ATB200-03 trial was a phase 3 double-blind, randomized, multicenter, international study of ATB200/AT2221 in adult subjects with late-onset Pompe disease (LOPD) who had received enzyme replacement therapy with alglucosidase alfa (i.e., ERT-experienced) or who had never received ERT (i.e., ERT naïve), compared with alglucosidase alfa/placebo.
(§2) Efficacy assessments (i.e., functional assessments) included evaluation of ambulatory function (6MWT), motor function tests (Gait, Stair, Gower, and Chair maneuver (GSGC) test and Timed Up and Go (TUG) test), muscle strength (manual muscle testing and quantitative muscle testing), and pulmonary function tests (FVC, SVC, MIP, MEP, and SNIP). Patient reported outcomes (Rasch-built Pompe-specific Activity (R Pact) Scale, EuroQol 5 Dimensions 5 Levels Instrument (EQ-5D-5L), Patient-Reported Outcomes Measurement Information System (PROMIS®) instruments for physical function, fatigue, dyspnea, and upper extremity, and Subject's Global Impression of Change) were recorded. The Physician's Global Impression of Change were also performed.
Key secondary efficacy endpoints in a pre-specified hierarchical order of importance were as follows. These secondary endpoints were analyzed using analysis of covariance (ANCOVA) model with last observation carried forward (ITT LOCF). • change from baseline to Week 52 in sitting FVC (% predicted) • change from baseline to Week 52 in the manual muscle test score for the lower extremities • change from baseline to Week 52 in the total score for the PROMIS—physical function • change from baseline to Week 52 in the total score for the PROMIS—fatigue • change from baseline to Week 52 in GSGC total score
(§3) PROPEL was a 52-week, double-blind randomized global study designed to assess the efficacy, safety and tolerability of AT-GAA compared to the current standard of care, alglucosidase alfa, an enzyme replacement therapy (ERT). The study enrolled 123 adult Pompe patients who still had the ability to walk and to breathe without mechanical ventilation and was conducted at 62 clinical sites in 24 countries on 5 continents. It was the largest controlled clinical study ever conducted in a lysosomal disorder.

[2] = test system: adult subjects with late-onset Pompe disease (LOPD); experiment: ATB200-03 (PROPEL): Gait, Stair, Gower, Chair (GSGC) test; assay type: in vivo, human; details: overall population, 52 weeks (p<0.05)
From the text: as §1, §2
Key secondary efficacy endpoints in a pre-specified hierarchical order of importance were as follows. […]

[3] = test system: adult subjects with late-onset Pompe disease (LOPD); experiment: ATB200-03 (PROPEL): safety assessments; assay type: in vivo, human; details: 52-week treatment
From the text: Safety assessments included monitoring of adverse events (AEs), including infusion associated reactions (IARs), clinical laboratory tests (chemistry, hematology, and urinalysis), vital signs, physical examinations including weight, electrocardiograms (ECGs), and immunogenicity. Concomitant medications and nondrug therapies were also be recorded.
The safety profile of ATB200/AT2221 was characterized using incidence of treatment emergent adverse events (TEAEs), serious adverse events (SAEs), and AEs leading to discontinuation of study drug, frequency and severity of immediate and late IARs, and any abnormalities noted in other safety assessments. The impact of immunogenicity to ATB200 and alglucosidase alfa on safety and efficacy was also assessed.
Safety Analyses. Safety data was summarized using counts and percentages for categorical data and descriptive statistics (mean, standard deviation, median, minimum, maximum) for continuous data.

[4] = test system: adult subjects with late-onset Pompe disease (LOPD); experiment: ATB200-03 (PROPEL) phase 3 trial: 6-minute walk test; assay type: in vivo, human
From the text: as §1
Eligible subjects were randomly assigned in a 2:1 ratio to receive ATB200/AT2221 or alglucosidase alfa/placebo and stratified by ERT status (ERT-experienced, ERT-naïve) and baseline 6-minute walk distance (6MWD) (75 to <150 meters, 150 to <400 meters, ≥400 meters).
as §2
The primary efficacy endpoint was the change from baseline to Week 52 in 6MWD. The primary endpoint was tested for superiority of ATB200/AT2221 vs Alglucosidase alfa/placebo, using mixed-effect model for repeated measures (MMRM) and pre-specified nonparametric test in case of violation of normality.
Efficacy Analyses. The primary efficacy endpoint (i.e., change from baseline to Week 52 in 6MWD) was analyzed using a parametric analysis of covariance (ANCOVA) model to compare between the new treatment and the control. This model would typically adjust for baseline 6MWD (as a continuous covariate), and the 2 factors used to stratify randomization: ERT status (ERT naïve vs. ERT-experienced) and baseline 6MWD (75 to <150 meters, 150 to <400 meters, ≥400 meters). However, the baseline 6MWD could not be used in the model twice (both as a continuous and a categorical variable) due to the expected high point biserial correlation between them. Thus, the 6MWD continuous variable remained in the model but the categorical 6MWD was removed. The ANCOVA model then had terms for treatment, baseline 6MWD (continuous), and ERT status (categorical).
as §3

[5] = test system: adult subjects with late-onset Pompe disease (LOPD); experiment: ATB200-03 (PROPEL): urinary hexose tetrasaccharide (Hex4) biomarker; assay type: in vivo, human; details: after 52 weeks, combined ERT switch and ERT naïve population (p<0.001)
From the text: as §1
(§4) Pharmacodynamic assessments included measurement of biomarkers of muscle injury (creatine kinase (CK) and disease substrate (urinary hexose tetrasaccharide (Hex4)). Sparse blood samples were collected for determination of total GAA protein levels and AT2221 concentrations in plasma for a population PK analysis in ERT-experienced subjects. Serial blood sampling for characterization of the PK profile of total GAA protein and AT2221 were done in ERT-naïve subjects.
(§5) Pharmacodynamic endpoints were as follows: • change from baseline to Week 52 in serum CK level • change from baseline to Week 52 in urinary Hex4 level

[6] = test system: adult subjects with late-onset Pompe disease (LOPD); experiment: ATB200-03 (PROPEL): creatine kinase (CK) biomarker of muscle injury; assay type: in vivo, human; details: after 52 weeks, overall population (p<0.001)
From the text: as §1, §4, §5

Gaa KO mice [7] = experiment: muscle biomarker analysis (LAMP1, LC3, dysferlin) in Gaa KO mice; assay type: in vivo; details: FIG. 15B
Procedure: The therapeutic effects of ATB200 and AT2221 were evaluated and compared against those of Alglucosidase alfa in Gaa KO mice. For the study, male Gaa KO (3- to 4-month old) and age-matched wild-type (WT) mice were used. Alglucosidase alfa was administered via bolus tail vein intravenous (IV) injection. In the co-administration regimen, AT2221 was administered via oral gavage (PO) 30 minutes prior to the IV injection of ATB200. Treatment was given biweekly. Treated mice were sacrificed after 14 days from the last administration and various tissues were collected for further analysis. Table 7 summarizes the study design:
Tissue samples were also analyzed for biomarker changes following the methods discussed in: Khanna R, et al. (2012), “The pharmacological chaperone AT2220 increases recombinant human acid α-glucosidase uptake and glycogen reduction in a mouse model of Pompe disease,” Plos One 7(7): e40776; and Khanna, R et al. (2014), “The Pharmacological Chaperone AT2220 Increases the Specific Activity and Lysosomal Delivery of Mutant Acid α-Glucosidase, and Promotes Glycogen Reduction in a Transgenic Mouse Model of Pompe Disease,” PLoS ONE 9(7): e102092.

[8] = test system: subjects with late-onset Pompe disease (LOPD); details: cited from earlier work
Gaa KO mice [9] = experiment: single fiber analysis (LAMP1/LC3 co-immunofluorescence, white gastrocnemius); assay type: in vivo; details: Gaa KO mice
From the text: FIG. 17 depicts co-immunofluorescent staining of LAMP1 (green) (see for example, “B”) and LC3 (red) (see, for example, “A”) in single fibers isolated from the white gastrocnemius of Gaa KO mice treated with a vehicle, alglucosidase alfa, or ATB200. “C” depicts clearance of autophagic debris and absence of enlarged lysosome. A minimum of 30 fibers were examined from each animal.
As a result, a significant portion of muscle fibers analyzed (36-60%) from ATB200-treated mice appeared normal or near-normal.

[10] = ERT switch (ERT-experienced) population (n=95)
[11] = ERT treatment naïve population (n=27), listed as Alglucosidase alfa
[12] = overall ERT switch and ERT naïve population (n=122)

## [199-arginine,223-histidine]prepro-α-glucosidase (human) [alglucosidase alfa]
[1]; [10]
  FVC CFBL at Week 52: −4.0 (0.9) % predicted
[1]; [11]
  FVC CFBL at Week 52: −3.6 (1.8) % predicted
[1]; ERT treatment naïve population (n=27), listed as alglucosidase alpha
  FVC CFBL at Week 52: −3.6 % predicted
[1]; after 52 weeks, combined population
  absolute decline in percent-predicted FVC: 4.0%
[1]; over the course of the year, ERT switch patients
  absolute decline in percent-predicted FVC: 4.0%
[1]; [12]
  FVC CFBL at Week 52: −4.0 (0.8) % predicted
[2]
  GSGC scores: worsening
[3]
  patients who discontinued treatment due to an adverse event: 2.6%
[3]; share of participants
  Injection associated reactions (IARs) reported: 26%
[4]; [10]
  6MWD CFBL at Week 52: 0.0 m
[4]; ERT treatment naïve population (n=27)
  6MWD CFBL at Week 52: 38 m
[4]; [11]
  6MWD CFBL at Week 52: +38.3 (11.1) m
[4]; [12]
  6MWD CFBL at Week 52: 7 m
[4]; overall ERT switch and ERT naïve population (n=122), listed as Alglucosidase alfa
  6MWD CFBL at Week 52: +7.2 m
[5]
  mean change in urine Hex-4: +11.0%
[6]
  mean change in CK: +15.6%
Gaa KO mice [7]
  LC3 II level by western blot (autophagy): modest
[8]; 368 LOPD subjects from published studies
  subjects who did not show an initial improvement during treatment: > 30%
[8]; longer-term studies
  duration of improvements in initial responders: approximately 2 years
Gaa KO mice [9]
  Fibers with Autophagy Buildup: >90%
  Fibers with Normal or Near-normal Appearance: <10%
